The source of these data is US8710088B2, “Pharmaceutical and diagnostic compositions for use in the treatment and diagnosis of neurodegenerative diseases or amyloid diseases” (Max-Delbruck-Centrum fur Molekulare Medizin, priority 2004, dated 2014).

The target of series [1] is T1, mutant huntingtin (GST fusion protein GST-HDQ51) (Homo sapiens, UniProt P42858, INS38QQQQQQQQQQQQQQQQQQQQQQQQQQQQQQ).
T1 construct: GST (N)
Put plainly: in vitro amyloid fibril formation of huntingtin, electron microscopy. It counts as biochemical. How it is done:
(§1) As in the tests described by Heiser et al. (2002), the protein was used for aggregation tests to which either only solvent or solvent and the chemical agent in question was added. Aliquots of these batches were examined by means of the membrane filter test and electron microscopy.
(§2) As in the tests described by Heiser et al. (2002), the protein was used for aggregation tests to which either only solvent or solvent and 7-amino-8-(2,4-dihydroxy-6-methyl-phenyl)-1,9-dimethyl-phenoxazine-3-one was added. Aliquots of these batches were examined by means of the membrane filter test (FIG. 1B) and electron microscopy (FIGS. 1E and 1F).

Another series concerns the target T2, wild type Aβ1-42 (Homo sapiens, UniProt P05067).
T2 construct: non-mutated (wild type) Aβ1-42
The series can be described thus: aggregation assay with wild type Aβ1-42, membrane filter method. The settings on record: peptide 15 μM, pH 7.4, 42 h, 37° C. It counts as biochemical. The method, then:
(§3) Analogously, the compounds were also examined in aggregation assays with the amyloid β-peptide Aβ1-42(E22Q), which is a particularly rapidly aggregating variant of amyloid β, as well as with non-mutated (wild type) Aβ1-42. For this purpose, the peptide was incubated at a concentration of 15 μM in a phosphate buffer with a physiological pH value of 7.4 for 42 h at 37° C. and subsequently, aliquots were examined by means of the membrane filter method (Figure) or electron microscopy (Figures) as well. […] Cell viability measurements were carried out in neuronally differentiated PC12 cells to which beta-amyloid and the substances to be tested were added extracellularly in order to examine whether the compounds are able to reduce toxicity caused by amyloid-beta. After 48 h the viability of the cells (approximately corresponds to the number of vital cells) was measured.

The test system of series [2] is neuronally differentiated PC12 cells. Put plainly: toxicity of extracellular Aβ1-42 in neuronally differentiated PC12 cells, MTT test. It counts as cell-based. As to conditions: 48 h. The method, then: as §3
For series [3], the target named is T1, mutant huntingtin (GST fusion protein GST-HDQ51). The series can be described thus: in vitro aggregation of mutant huntingtin, membrane filter test. It counts as biochemical. As to conditions: membrane filter method. The method, then:
as §1, §2

The target in series [4] is T3, amyloid β-peptide Aβ1-42[E22Q] (Homo sapiens, UniProt P05067, E693Q).
T3 construct: the amyloid β-peptide Aβ1-42[E22Q]
T3 sequence (P05067 672-713 E693Q): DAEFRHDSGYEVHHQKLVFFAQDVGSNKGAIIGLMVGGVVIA
The series can be described thus: aggregation assay with Aβ1-42[E22Q], membrane filter method or electron microscopy. Type of series: biochemical. As to conditions: 15 μM peptide, pH 7.4, 42 h, 37° C. How it is done:
as §3
Analogously, the compound was also examined in aggregation assays with the amyloid β-peptide Aβ1-42[E22Q] which is a particularly rapidly aggregating variant of amyloid β. For this purpose, the peptide was incubated at a concentration of 15 μM in a phosphate buffer with a physiological pH value of 7.4 for 42 h at 37° C. and subsequently, aliquots were examined by means of the membrane filter method (FIG. 1A) or electron microscopy (FIGS. 1C and 1D) as well.

For a further series, the target named is T4, huntingtin (Homo sapiens, UniProt P42858, INS38QQQQQQQQQQQQQQQQQQQQQQQQQQQQQQ).
T4 construct: expressed in transfected cells; host or cells: COS1 cells, transient transfection
T4 sequence (P42858 with tags, fused parts or gaps with the stated changes limits assumed): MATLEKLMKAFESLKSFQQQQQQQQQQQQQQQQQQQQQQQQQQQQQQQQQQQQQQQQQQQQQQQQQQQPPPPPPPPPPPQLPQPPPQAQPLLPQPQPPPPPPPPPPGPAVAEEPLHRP
The series can be described thus: cell culture model of Huntington's chorea: COS1 cells transfected with pTL1-CAG51, membrane filter test. Type of series: cell-based. The settings on record: 40-44 h, membrane filter method. The method, then: (§4) The compounds were then tested in several cell culture models of polyglutamine diseases, inter alia Huntington's chorea. For this purpose, COS1 cells were transiently transfected with the plasmid pTL1-CAG51 already described above (Sittler, A., Walter, S., Wedemeyer, N., Hasenbank, R., Scherzinger, E., Eickhoff, H., Bates, G. P., Lehrach, H. and Wanker, E. E. (1998) Mol Cell 2, 427-36) and cultivated for 44 h in the presence of solvents or the chemical agents. Subsequently, the amount of aggregate was determined with the help of the membrane filter test as described by Heiser et al. (2002). […] The latter could be deduced from the total amount of protein in the cell lysate (FIG. 2B) which was determined with the help of cell extracts.
7-Amino-8-(2,4-dihydroxy-6-methyl-phenyl)-1,9-dimethyl-phenoxazine-3-one was then tested in a cell culture model of Huntington's chorea. For this purpose, COS1 cells were transiently transfected with the plasmid pTL1-CAG51 already described above (Sittler, A., Walter, S., Wedemeyer, N., Hasenbank, R., Scherzinger, E., Eickhoff, H., Bates, G. P., Lehrach, H. and Wanker, E. E. (1998) Mol Cell 2, 427-36) and cultivated for 40-44 h in the presence of solvents or 7-amino-8-(2,4-dihydroxy-6-methyl-phenyl)-1,9-dimethyl-phenoxazine-3-one. Subsequently, the amount of aggregate was determined with the help of the membrane filter test as described by Heiser et al. (2002). […] The latter could be deduced from the total amount of protein (FIG. 2B) which was determined with the help of cell extracts.

The subject of a further series is COS1 cells. The series can be described thus: total amount of protein in the cell lysate (toxicity) in the COS1 model. It counts as cell-based. How it is done:
as §4
7-Amino-8-(2,4-dihydroxy-6-methyl-phenyl)-1,9-dimethyl-phenoxazine-3-one was then tested in a cell culture model of Huntington's chorea. […] Subsequently, the amount of aggregate was determined with the help of the membrane filter test as described by Heiser et al. (2002). […] The latter could be deduced from the total amount of protein (FIG. 2B) which was determined with the help of cell extracts.

In another series the test system is caspases-3/-7. The series can be described thus: caspase activity in the COS1 model of Huntington's chorea, fluorogenic substrate. It counts as cell-based. The settings on record: fluorometric. How it is done:
In addition, it was examined in this cell culture model of Huntington's chorea whether the substances tested substances can cause cell damage by initiating apoptotic processes. For this purpose, the activity of two caspases (caspases-3/-7) was determined fluorometrically after addition of a fluorogenic substrate.
In addition, it was examined in this cell culture model of Huntington's chorea whether 7-amino-8-(2,4-dihydroxy-6-methyl-phenyl)-1,9-dimethyl-phenoxazine-3-one can cause cell damage by initiating apoptotic processes. For this purpose, the activity of two caspases (caspases 3 and 7) was determined fluorometrically after addition of a fluorogenic substrate.

The subject of another series is alpha-synuclein. Put plainly: alpha-synuclein amyloid fibril formation, electron microscopy. It counts as biochemical. The settings on record: wild type protein or mutant (A53T). The source says: For this purpose, the wild type protein or a mutant (A53T) was used.
Another series has as its system neuroblastoma cells. As to conditions: neuroblastoma cells damaged with amyloid β-peptide; cited from earlier work.
For series [5], the system named is ataxin-3 deletion construct (aa 221-360) with 71 glutamines. Put plainly: ataxin-3 aggregation in COS-1 cells, filtration method. It counts as cell-based. As to conditions: 40 h, membrane filter method. How it is done: For some compounds, a positive effect could be observed in another cell culture model of Huntington's chorea and a cell culture model of spinocerebellar ataxia (type 3). A test system based on the aggregation of an N-terminal ataxin-3 deletion construct (aa 221-360) with 71 glutamines in COS-1 cells was developed to isolate substances inhibiting the ataxin-3 aggregation. The cells were transiently transfected with the ataxin-3 expression construct and incubated in plates with 96 perforations with the added substance at 37° C. in an incubator. After 40 h the cells were harvested and lysated. The lysates were denatured in the presence of 2% SDS and analyzed using the filtration method.

The target of the next series is amyloid-beta fibrils (Homo sapiens, UniProt P05067). The series can be described thus: binding to amyloid-beta aggregates located on a cellulose acetate membrane. The settings on record: colored substances. From the text:
FIG. 16: Binding to amyloid-beta aggregates located on a cellulose acetate membrane

T1 sequence (P42858 with tags, fused parts or gaps with the stated changes limits assumed): as above
T2 sequence (P05067 672-713 limits assumed): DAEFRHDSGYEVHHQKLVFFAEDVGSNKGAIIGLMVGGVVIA
Chain of amyloid-beta fibrils (P05067 672-713 limits assumed): as above

In the case of `c1cc2c3c(cccc3c1)NC(c1ccncc1)N2` [2-pyridine-4-yl-2,3-dihydro-1H-perimidine], in [1], the “Inhibition of the amyloid fibril formation of huntingtin (Exon-1)” value is listed as “Inhibition of the amyloid fibril formation”.

Take `Nc1cccc(C2=Nc3cccc4cccc(c34)N2)c1` [3-(1H-perimidine-2-yl)-phenylamine]: the “Inhibition of the aggregation of wild type Aβ1-42 (SDS-insoluble aggregates)” value on wild type Aβ1-42 is “Inhibition of the aggregation”. The “Inhibition of toxicity of extracellular wild type Aβ1-42” value in series [2] is reported as “Inhibition of toxicity”.

As to `Cc1cc(=O)cc2oc3cc(N)c(-c4c(C)cc(O)cc4O)c(C)c3nc1-2` [7-amino-8-(2,4-dihydroxy-6-methyl-phenyl)-1,9-dimethyl-phenoxazine-3-one], the “Inhibition of the aggregation of huntingtin (Exon-1) (SDS-insoluble aggregates)” value (from here on “Inhibition … (Exon-1) (SDS-insoluble aggregates)”) in series [3] is listed as “aggregation inhibiting effect”. In series [1], the “Inhibition of the amyloid fibril formation of huntingtin (Exon-1)” value was “aggregation inhibiting effect”. In series [4], the “Inhibition of the aggregation of amyloid β-peptide Aβ1-42[E22Q]” value is given as “effectively inhibits the aggregation”. Also, the “Inhibition of the aggregation of huntingtin in mammalian cells” value at huntingtin was “aggregation inhibiting influence”. Moreover, the “increase of total protein content” value in the series with COS1 cells (COS1 cells cultivated in presence of compound) was ~20%. Further, the “toxic effect, deduced from total amount of protein” value in the series on COS1 cells (COS1 cells, at the concentrations used) was “without having a toxic effect”. The “caspase activity (caspases 3 and 7)” value in the series with caspases-3/-7 is recorded as “caspase activity was reduced”.

`Oc1cc(O)c2c(c1)O[C@H](c1cc(O)c(O)c(O)c1)[C@H](O)C2` [EGC, (−)-Epigallocatechin]: the “Inhibition … (Exon-1) (SDS-insoluble aggregates)” value in series [3] was “Inhibition of the aggregation”. The “Inhibition of the aggregation of alpha-synuclein (amyloid fibrils)” value (shortened to “Inhibition … (amyloid fibrils)”) in the series with alpha-synuclein is on record as “Inhibition of the aggregation”.

As for `O=C(O[C@@H]1Cc2c(O)cc(O)cc2O[C@@H]1c1cc(O)c(O)c(O)c1)c1cc(O)c(O)c(O)c1` [EGCG, (−)-Epigallocatechin gallate], the “Inhibition … (amyloid fibrils)” value in the series with alpha-synuclein is recorded as “Inhibition of the aggregation”. The neuroprotective effect entry with neuroblastoma cells is “neuroprotective effect”.

As to `Oc1cc(O)c2c(c1)O[C@@H](c1cc(O)c(O)c(O)c1)[C@H](O)C2` [GC, (−)-Gallocatechin], in [3], the “Inhibition … (Exon-1) (SDS-insoluble aggregates)” value is given as “Inhibition of the aggregation”. In addition, the “Inhibition … (amyloid fibrils)” value in the series with alpha-synuclein was “Inhibition of the aggregation”.

As for `O=C(O[C@@H]1Cc2c(O)cc(O)cc2O[C@H]1c1cc(O)c(O)c(O)c1)c1cc(O)c(O)c(O)c1` [GCG, (−)-Gallocatechin gallate], in the series on alpha-synuclein, the “Inhibition … (amyloid fibrils)” value was “Inhibition of the aggregation”.

For `CC(=O)N1CCN(c2ccc(OC(=O)Cc3cccs3)cc2)CC1` [Thiophene-2-yl-acetic acid 4-(4-acetyl-piperazine-1-yl)-phenyl ester], at huntingtin, the “Inhibition of the aggregation of huntingtin in mammalian cells” value is “Inhibition of the aggregation”. The “Inhibition of the aggregation of ataxin-3 in mammalian cells” value in series [5] is “Inhibition of the aggregation”.

Consider alpha-amino-orcein, for which, on wild type Aβ1-42, the “Inhibition of the aggregation of wild type Aβ1-42 (SDS-insoluble aggregates)” value was “Inhibition of the aggregation”. In addition, in series [2], the “Inhibition of toxicity of extracellular wild type Aβ1-42” value is “Inhibition of the toxicity”. Besides, the “Inhibition of the aggregation of huntingtin in mammalian cells” value on huntingtin is “Inhibition of the aggregation”. For the same compound, the “direct binding to amyloid-beta fibrils” value at amyloid-beta fibrils is “bind directly to amyloid-beta fibrils”.
